Assay results published in publication PMC11477717, “Synthesis of Carborane–Thiazole Conjugates as Tyrosinase and 11β-Hydroxysteroid Dehydrogenase Inhibitors: Antiproliferative Activity and Molecular Docking Studies” (Molecules, 2024).

Tests used:
[1] = system: A172 (human brain glioblastoma); assay: MTT antiproliferative assay, A172; assay type: cell-based; details: for IC50: MTT, 72 h, A172 cells, read-out: IC50 ± SD A172; for SI HUVEC/A172: selectivity index = IC50 normal cell line / IC50 cancer cell line
Procedure: (§1) All cell lines were obtained from ATCC, and all chemicals were purchased from Sigma-Aldrich, St. Louis, MO, USA. […] All media were supplemented with antibiotic and antimycotic solutions, according to the manufacturers’ instructions. MTT cytotoxicity assessments were performed as described previously. […] The cells counted using an automated cell counter (Countess® II FL, Invitrogen by Thermo Fisher Scientific Inc., Waltham, MA, USA) were plated in 96-well plates (Nunc Edge 2F, Thermo Fisher Scientific Inc.) at a density of 0.1 × 10^4 per well. After an additional 72 h, cells underwent an MTT cytotoxicity assay (see below). The IC50 values were calculated using ED50plus v 1.0 freeware software (Instituto Nacional de Enfermedades Respiratorias, Mexico City, Mexico). Each cell line was tested in three independent replicates.
(§2) After the incubation time was complete, the medium was removed and crystals of formazan were solubilized in pure isopropanol. The absorbance readout was conducted immediately using a plate reader, Multiskan Spectrum, at 570 nm (Thermo Fisher Scientific Inc., Waltham, MA, USA). The background optical density was measured in the wells filled with the culture medium, without any cells.

[2] = system: HUVEC (human umbilical vein endothelial cells); assay: MTT antiproliferative assay, HUVEC healthy control; assay type: cell-based; details: 72 h, HUVEC normal cells, read-out: IC50 ± SD HUVEC
Procedure: All cell lines were obtained from ATCC, and all chemicals were purchased from Sigma-Aldrich, St. Louis, MO, USA. Briefly, cells were cultivated in a controlled atmosphere using DMEM medium with fetal bovine serum (FBS) at a final concentration of 10% (A-172), an L15 medium with 15% FBS, cultivated without CO2 (MDA-MB-231), F12K with a heparin final concentration of 0.1 mg/mL, endothelial cell growth supplement with a final concentration of 0.03 mg/mL (HUVEC), and RPMI with 5% FBS. All media were supplemented with antibiotic and antimycotic solutions, according to the manufacturers’ instructions. MTT cytotoxicity assessments were performed as described previously. Briefly, cell lines A172, B16F10, MDA-MB-231, and HUVEC were seeded 24 h prior to the addition of the tested compounds. The cells counted using an automated cell counter (Countess® II FL, Invitrogen by Thermo Fisher Scientific Inc., Waltham, MA, USA) were plated in 96-well plates (Nunc Edge 2F, Thermo Fisher Scientific Inc.) at a density of 0.1 × 10^4 per well. After an additional 72 h, cells underwent an MTT cytotoxicity assay (see below). The IC50 values were calculated using ED50plus v 1.0 freeware software (Instituto Nacional de Enfermedades Respiratorias, Mexico City, Mexico). Each cell line was tested in three independent replicates.
as §2, with “Twenty microliters of an MTT solution (MTT: 3-(4,5-dimethylthiazol-2-yl)-2,5-diphenyl tetrazolium bromide, stock solution: 5 mg/mL) was added to each cell line for 2 h (A172, B16F10, MDA-MB-231, and HUVEC). After” for “After”

[3] = system: MDA-MB-231 (human breast adenocarcinoma); assay: MTT antiproliferative assay, MDA-MB-231; assay type: cell-based; details: for IC50: MTT, 72 h, MDA-MB-231 cells, read-out: IC50 ± SD MDA-MB-231; for SI HUVEC/ MDA-MB-231: selectivity index = IC50 normal cell line / IC50 cancer cell line
Procedure: as §1, §2

mushroom tyrosinase [4] = target: T1, mushroom tyrosinase (Agaricus bisporus, UniProt C7FF04); assay: Kinetic analysis of the inhibition of tyrosinase (Lineweaver-Burk); assay type: biochemical; details: compound at 0.05 mM; for Mechanism of Inhibition: Lineweaver-Burk plots; for Vmax: L-DOPA 100-250 µM
T1 construct: purchased Sigma-Aldrich
T1 sequence (C7FF04 1-392 limits assumed): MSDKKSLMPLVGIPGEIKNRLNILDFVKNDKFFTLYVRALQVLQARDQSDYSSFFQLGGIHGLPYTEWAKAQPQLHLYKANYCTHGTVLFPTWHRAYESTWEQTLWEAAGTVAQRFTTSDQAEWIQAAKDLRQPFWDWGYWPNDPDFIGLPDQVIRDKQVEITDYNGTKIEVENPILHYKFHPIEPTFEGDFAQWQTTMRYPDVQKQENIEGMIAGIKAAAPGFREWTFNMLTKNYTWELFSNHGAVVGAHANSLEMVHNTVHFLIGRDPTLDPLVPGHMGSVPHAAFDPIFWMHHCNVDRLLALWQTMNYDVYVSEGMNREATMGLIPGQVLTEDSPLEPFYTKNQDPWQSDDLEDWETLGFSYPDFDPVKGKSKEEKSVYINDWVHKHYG
Procedure: A series of experiments were performed to determine the inhibition kinetics of compounds by following the already reported method. The inhibitor concentrations for compounds were 50 and 100 µM. The substrate L-DOPA concentration was between 100 and 250 µM in all kinetic studies. Maximal initial velocity was determined from the initial linear portion of absorbance up to ten minutes after the addition of the enzyme. The inhibition type of the enzyme, Michaelis constant (KM), and maximal velocity (Vmax) were determined by Lineweaver–Burk plots of the inverse of velocities (1/V) versus the inverse of substrate concentration 1/[L-DOPA] mM^−1.

B16F10 (murine melanoma) = assay: MTT antiproliferative assay, B16F10; assay type: cell-based; details: for IC50: MTT, 72 h, B16F10 cells, read-out: IC50 ± SD B16F10; for SI HUVEC/ B16F10: selectivity index = IC50 normal cell line / IC50 cancer cell line
Procedure: as §1, §2

mushroom tyrosinase [5] = target: T1, mushroom tyrosinase; assay: Mushroom tyrosinase inhibition assay (L-DOPA, dopachrome 475 nm); assay type: biochemical; details: L-DOPA 0.17 mM, pH 6.8, room temperature; read-out: IC50 ± SD mushroom tyrosinase
Procedure: The mushroom tyrosinase (Sigma-Aldrich) inhibition was performed following previously reported methods. […] The inhibitor solutions were prepared in DMSO with an initial concentration of 1 mM. Different aliquots were added to the solution containing the buffer, L-DOPA, and EDTA, with the enzyme being added last. […] Ascorbic acid was used as a reference inhibitor with an initial concentration of 1 mM. The IC50 values were calculated from the equation generated via exponential fit of the experimental data.

11β-HSD2 = target: T2, 11β-HSD2 (Homo sapiens, UniProt P80365); assay: Inhibition of 11β-HSD2 assay (cortisol to cortisone, microsomes, cortisol ELISA); assay type: biochemical; details: inhibitor 10 µM, 150 min, 37 °C
T2 construct: Human kidney microsomes, mixed gender, 0.5 mL, 10 mg/mL, Lot No. 1710160, were obtained from XenoTech; tissue XenoTech Lot No. 1710160; host or cells: human kidney microsomes
T2 sequence (P80365 1-405): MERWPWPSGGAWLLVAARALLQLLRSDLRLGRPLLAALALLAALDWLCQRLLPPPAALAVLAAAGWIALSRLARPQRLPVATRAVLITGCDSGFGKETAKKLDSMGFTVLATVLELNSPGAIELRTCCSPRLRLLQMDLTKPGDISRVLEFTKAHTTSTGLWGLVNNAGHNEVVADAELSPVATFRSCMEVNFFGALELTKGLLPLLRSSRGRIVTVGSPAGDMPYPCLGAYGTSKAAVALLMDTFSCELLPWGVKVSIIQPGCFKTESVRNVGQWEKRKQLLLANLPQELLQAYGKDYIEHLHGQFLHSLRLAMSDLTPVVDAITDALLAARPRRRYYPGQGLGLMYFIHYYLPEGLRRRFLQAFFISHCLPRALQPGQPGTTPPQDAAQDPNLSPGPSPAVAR
Procedure: The Enzyme-Linked Immunosorbent Assay (ELISA) Kit for 11-Beta-Hydroxysteroid Dehydrogenase Type 1, Lot No. L160706125, was obtained from Cloud-Clone Corp. PBS, Lot No. H161008, was obtained from Pan Biotech. […] The Enzyme-Linked Immunosorbent Assay (ELISA) Kit for 11-Beta-Hydroxysteroid Dehydrogenase Type 2, Lot No. L191113457, was obtained from Cloud-Clone Corp.
The oxidation reaction of cortisol to cortisone was carried out on 96-well microtiter plates in the presence of the enzyme 11β-HSD2 in a total volume of 100 µL. To this end, 60 µL of phosphate buffer (pH 7.4), 10 µL of a microsomes(0.12 µg/mL […]) solution in PBS (final quantity 2.5 µg), 20 µL of substrate mixture cortisol/NAD (final concentration 200 nM/2 mM), and 10 µL of the appropriate inhibitor solution (solvent DMSO/water 1/99, final concentration 10 µM) were placed in each well. The microplates were incubated on an orbital shaker for 150 min at 37 °C. […] The quantity of unreacted cortisol was determined using a cortisol ELISA kit DiaMetra.

11β-HSD1 = target: T3, 11β-HSD1 (Homo sapiens, UniProt P28845); assay: Inhibition of 11β-HSD1 assay (cortisone to cortisol, microsomes, cortisol ELISA); assay type: biochemical; details: for IC50: 5 inhibitor concentrations, three independent determinations, read-out: IC50 ± SD 11β-HSD1; for % of 11β-HSD1 Inhibition 10 μM: inhibitor 10 µM, 150 min, 37 °C
T3 construct: tissue XenoTech Lot No. 1410013; host or cells: pooled human liver microsomes
T3 sequence (P28845 whole entry): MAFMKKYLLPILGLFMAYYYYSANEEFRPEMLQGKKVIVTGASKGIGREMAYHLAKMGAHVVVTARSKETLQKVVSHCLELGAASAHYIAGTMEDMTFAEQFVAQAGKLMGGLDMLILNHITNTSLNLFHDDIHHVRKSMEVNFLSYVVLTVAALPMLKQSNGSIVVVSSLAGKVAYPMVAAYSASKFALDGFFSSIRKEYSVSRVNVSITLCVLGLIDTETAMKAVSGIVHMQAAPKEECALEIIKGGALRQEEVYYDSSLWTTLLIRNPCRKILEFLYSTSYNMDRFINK
Procedure: L160706125, was obtained from Cloud-Clone Corp. PBS, Lot No. H161008, was obtained from Pan Biotech. […] L191113457, was obtained from Cloud-Clone Corp. […] The microplates were incubated on an orbital shaker for 150 min at 37 °C. […] The quantity of cortisol formed from cortisone was determined using a cortisol ELISA kit, […].

“2-(2-(1,2-Dicarba-closo-Dodecaboranylmethylene)Hydrazinyl)-4-(3,4,5-Trimethoxyphenyl)Thiazole [4i]” was tested, and the IC50 [1] was greater than 10 µM, the IC50 [2] was greater than 10 µM and the IC50 [3] was greater than 10 µM. The “Mechanism of Inhibition” value (mushroom tyrosinase [4]) was “Mixed”, the Vmax (mushroom tyrosinase [4]) was 0.5474 mM/min and the IC50 (B16F10 (murine melanoma)) was 5.88 µM. The “SI HUVEC/ B16F10” value (B16F10 (murine melanoma)) was greater than 1.70 and the IC50 (mushroom tyrosinase [5]) was 180 ± 7.83 µM.
With “2-(2-(1,2-Dicarba-closo-Dodecaboranylmethylene)Hydrazinyl)-4-(4-Nitrophenyl)Thiazole [4g]” the IC50 [1] was 6.07 ± 1.06 µM, the “SI HUVEC/A172” value [1] was greater than 1.65 and the “% of 11β-HSD2 Inhibition 10 μM” value (11β-HSD2) was 32.55%. For the same compound, the IC50 (11β-HSD1) was 7.05 ± 0.25 µM, the “% of 11β-HSD1 Inhibition 10 μM” value (11β-HSD1) was 73.51% and the IC50 [2] was greater than 10 µM. The IC50 [3] was 6.96 ± 0.74 µM, the “SI HUVEC/ MDA-MB-231” value [3] was greater than 1.44 and the “Mechanism of Inhibition” value (mushroom tyrosinase [4]) was “Uncompetitive”. For the same compound, the Vmax (mushroom tyrosinase [4]) was 0.0521 mM/min, the IC50 (B16F10 (murine melanoma)) was 5.11 µM and the “SI HUVEC/ B16F10” value (B16F10 (murine melanoma)) was greater than 1.96. The IC50 (mushroom tyrosinase [5]) was 105 ± 9.08 µM.
For O=C1O[C@H]([C@@H](O)CO)C(O)=C1O [Ascorbic acid, reference compound], the IC50 (mushroom tyrosinase [5]) was 386 ± 12 µM.
“4-(4-Chlorophenyl)-2-(2-(1,2-Dicarba-closo-Dodecaboranylmethylene)Hydrazinyl)Thiazole [4a]” was tested, and the IC50 [1] was 5.77 ± 0.96 µM, the “SI HUVEC/A172” value [1] was 1.19 and the “% of 11β-HSD2 Inhibition 10 μM” value (11β-HSD2) was 25.47%. For the same compound, the IC50 (11β-HSD1) was 7.03 ± 0.53 µM, the “% of 11β-HSD1 Inhibition 10 μM” value (11β-HSD1) was 60.07% and the IC50 [2] was 6.87 ± 0.33 µM. The IC50 [3] was 6.54 ± 0.52 µM, the “SI HUVEC/ MDA-MB-231” value [3] was 1.05 and the “Mechanism of Inhibition” value (mushroom tyrosinase [4]) was “Mixed”. The Vmax (mushroom tyrosinase [4]) was 0.1656 mM/min, the IC50 (B16F10 (murine melanoma)) was 5.03 ± 0.69 µM and the “SI HUVEC/ B16F10” value (B16F10 (murine melanoma)) was 1.37. It also gave an IC50 (mushroom tyrosinase [5]) of 130 ± 20.9 µM.
For “4-(2-(2-(1,2-Dicarba-closo-Dodecaboranylmethylene)Hydrazinyl)Thiazol-4-yl)Benzene-1-Sulfonyl Fluoride [4j]”, the IC50 [1] was 6.4 ± 0.71 µM, the “SI HUVEC/A172” value [1] was greater than 1.56 and the IC50 [2] was greater than 10 µM. The IC50 [3] was 6.43 ± 0.23 µM, the “SI HUVEC/ MDA-MB-231” value [3] was greater than 1.56 and the “Mechanism of Inhibition” value (mushroom tyrosinase [4]) was “Mixed”. The Vmax (mushroom tyrosinase [4]) was 0.7876 mM/min, the IC50 (B16F10 (murine melanoma)) was 5.75 ± 0.46 µM and the “SI HUVEC/ B16F10” value (B16F10 (murine melanoma)) was greater than 1.74.
